{
  "source": "PubChem BioAssay (NCI)",
  "assay_in_all_cases": "DTP human tumour cell line panel, 48 h",
  "key": {"SK-MEL-2 melanoma": {"system": "SK-MEL-2 melanoma"}, "SW-620 colon": {"system": "SW-620 colon"}, "LXFL 529 NSCLC": {"system": "LXFL 529 NSCLC"}, "UACC-62 melanoma": {"system": "UACC-62 melanoma"}, "HCC-2998 colon": {"system": "HCC-2998 colon"}, "HOP-92 NSCLC": {"system": "HOP-92 NSCLC"}, "IGROV1 ovarian": {"system": "IGROV1 ovarian"}, "OVCAR-5 ovarian": {"system": "OVCAR-5 ovarian"}, "SN12C renal": {"system": "SN12C renal"}, "TK-10 renal": {"system": "TK-10 renal"}, "SK-MEL-5 melanoma": {"system": "SK-MEL-5 melanoma"}, "NCI-H23 lung": {"system": "NCI-H23 lung"}, "MDA-MB-435": {"system": "MDA-MB-435"}, "SF-539 CNS": {"system": "SF-539 CNS"}, "LOX IMVI melanoma": {"system": "LOX IMVI melanoma"}, "SK-MEL-28 melanoma": {"system": "SK-MEL-28 melanoma"}, "M14 melanoma": {"system": "M14 melanoma"}, "MALME-3M melanoma": {"system": "MALME-3M melanoma"}, "EKVX NSCLC": {"system": "EKVX NSCLC"}, "NCI-H522 lung": {"system": "NCI-H522 lung"}, "UACC-257 melanoma": {"system": "UACC-257 melanoma"}, "MCF7 breast": {"system": "MCF7 breast"}, "HCT-116 colon": {"system": "HCT-116 colon"}, "SR leukemia": {"system": "SR leukemia"}, "ACHN renal": {"system": "ACHN renal"}, "HT29 colon": {"system": "HT29 colon"}, "SF-295 CNS": {"system": "SF-295 CNS"}, "BT-549 breast": {"system": "BT-549 breast"}, "786-0 renal": {"system": "786-0 renal"}, "DMS 273 small cell lung": {"system": "DMS 273 small cell lung"}, "NCI-H226 lung": {"system": "NCI-H226 lung"}, "SNB-75 CNS": {"system": "SNB-75 CNS"}, "OVCAR-3 ovarian": {"system": "OVCAR-3 ovarian"}, "KM20L2 colon": {"system": "KM20L2 colon"}, "T-47D breast": {"system": "T-47D breast"}, "SF-268 CNS": {"system": "SF-268 CNS"}, "CAKI-1 renal": {"system": "CAKI-1 renal"}, "OVCAR-8 ovarian": {"system": "OVCAR-8 ovarian"}, "DU-145 prostate": {"system": "DU-145 prostate"}, "UO-31 renal": {"system": "UO-31 renal"}, "RXF 393 renal": {"system": "RXF 393 renal"}, "DMS 114 small cell lung": {"system": "DMS 114 small cell lung"}, "K-562 leukemia": {"system": "K-562 leukemia"}, "OVCAR-4 ovarian": {"system": "OVCAR-4 ovarian"}, "MDA-MB-231 breast": {"system": "MDA-MB-231 breast"}, "HS 578T breast": {"system": "HS 578T breast"}, "HOP-62 NSCLC": {"system": "HOP-62 NSCLC"}, "DLD-1 colon": {"system": "DLD-1 colon"}, "A498 renal": {"system": "A498 renal"}, "MOLT-4 leukemia": {"system": "MOLT-4 leukemia"}, "A549 NSCLC": {"system": "A549 NSCLC"}, "NCI-H460 lung": {"system": "NCI-H460 lung"}, "M19-MEL melanoma": {"system": "M19-MEL melanoma"}, "HCT-15 colon": {"system": "HCT-15 colon"}, "U251 CNS": {"system": "U251 CNS"}, "KM12 colon": {"system": "KM12 colon"}, "PC-3 prostate": {"system": "PC-3 prostate"}, "NCI/ADR-RES ovarian": {"system": "NCI/ADR-RES ovarian"}, "SNB-19 CNS": {"system": "SNB-19 CNS"}, "RPMI-8226 leukemia": {"system": "RPMI-8226 leukemia"}, "COLO 205 colon": {"system": "COLO 205 colon"}, "HL-60(TB) leukemia": {"system": "HL-60(TB) leukemia"}, "SK-OV-3 ovarian": {"system": "SK-OV-3 ovarian"}, "CCRF-CEM leukemia": {"system": "CCRF-CEM leukemia"}},
  "note": "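In this assay, cells in 96-well plates receive the compound at five concentrations for 48 hours. Endpoints are linearly interpolated between the surrounding concentrations. Here, GI50 denotes the concentration required for 50% inhibition of growth. TGI marks complete inhibition of growth.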",
  "data": [
    {"smiles": "CN1CCN(CCNc2ccc(CO)c3sc4ccccc4c(=O)c23)CC1", "values": [
      {"measurement": "TGI", "setting": "SK-MEL-2 melanoma", "value": 20.9, "unit": "µM"},
      {"measurement": "TGI", "setting": "SW-620 colon", "value": 14.1, "unit": "µM"},
      {"measurement": "TGI", "setting": "LXFL 529 NSCLC", "value": 22.6, "unit": "µM"},
      {"measurement": "TGI", "setting": "UACC-62 melanoma", "value": 9.93, "unit": "µM"},
      {"measurement": "TGI", "setting": "HCC-2998 colon", "value": 18.6, "unit": "µM"},
      {"measurement": "TGI", "setting": "HOP-92 NSCLC", "value": 13.2, "unit": "µM"},
      {"measurement": "TGI", "setting": "IGROV1 ovarian", "value": 27.2, "unit": "µM"},
      {"measurement": "TGI", "setting": "OVCAR-5 ovarian", "value": 21.2, "unit": "µM"},
      {"measurement": "GI50", "setting": "SN12C renal", "value": 3.64, "unit": "µM"},
      {"measurement": "TGI", "setting": "SN12C renal", "value": 15.4, "unit": "µM"},
      {"measurement": "TGI", "setting": "TK-10 renal", "value": 20.1, "unit": "µM"},
      {"measurement": "TGI", "setting": "SK-MEL-5 melanoma", "value": 9.88, "unit": "µM"},
      {"measurement": "TGI", "setting": "NCI-H23 lung", "value": 17.6, "unit": "µM"},
      {"measurement": "GI50", "setting": "MDA-MB-435", "value": 1.98, "unit": "µM"},
      {"measurement": "TGI", "setting": "MDA-MB-435", "value": 4.51, "unit": "µM"},
      {"measurement": "TGI", "setting": "SF-539 CNS", "value": 10.7, "unit": "µM"},
      {"measurement": "GI50", "setting": "LOX IMVI melanoma", "value": 2.59, "unit": "µM"},
      {"measurement": "TGI", "setting": "LOX IMVI melanoma", "value": 8.27, "unit": "µM"},
      {"measurement": "TGI", "setting": "SK-MEL-28 melanoma", "value": 9.02, "unit": "µM"},
      {"measurement": "TGI", "setting": "M14 melanoma", "value": 12, "unit": "µM"},
      {"measurement": "TGI", "setting": "MALME-3M melanoma", "value": 12, "unit": "µM"},
      {"measurement": "GI50", "setting": "EKVX NSCLC", "value": 7.48, "unit": "µM"},
      {"measurement": "TGI", "setting": "EKVX NSCLC", "value": 20.7, "unit": "µM"},
      {"measurement": "TGI", "setting": "NCI-H522 lung", "value": 8.89, "unit": "µM"},
      {"measurement": "TGI", "setting": "UACC-257 melanoma", "value": 9.84, "unit": "µM"},
      {"measurement": "GI50", "setting": "MCF7 breast", "value": 1.85, "unit": "µM"},
      {"measurement": "TGI", "setting": "MCF7 breast", "value": 8.77, "unit": "µM"},
      {"measurement": "TGI", "setting": "HCT-116 colon", "value": 8.24, "unit": "µM"},
      {"measurement": "TGI", "setting": "SR leukemia", "value": 19, "unit": "µM"},
      {"measurement": "TGI", "setting": "ACHN renal", "value": 26.7, "unit": "µM"},
      {"measurement": "TGI", "setting": "HT29 colon", "value": 7.86, "unit": "µM"},
      {"measurement": "TGI", "setting": "SF-295 CNS", "value": 17.5, "unit": "µM"},
      {"measurement": "GI50", "setting": "BT-549 breast", "value": 4.83, "unit": "µM"},
      {"measurement": "TGI", "setting": "BT-549 breast", "value": 16.1, "unit": "µM"},
      {"measurement": "TGI", "setting": "786-0 renal", "value": 17.5, "unit": "µM"},
      {"measurement": "TGI", "setting": "DMS 273 small cell lung", "value": 14.1, "unit": "µM"},
      {"measurement": "TGI", "setting": "NCI-H226 lung", "value": 13, "unit": "µM"},
      {"measurement": "TGI", "setting": "SNB-75 CNS", "value": 14.5, "unit": "µM"},
      {"measurement": "TGI", "setting": "OVCAR-3 ovarian", "value": 18.3, "unit": "µM"},
      {"measurement": "TGI", "setting": "KM20L2 colon", "value": 17.7, "unit": "µM"},
      {"measurement": "GI50", "setting": "T-47D breast", "value": 3.37, "unit": "µM"},
      {"measurement": "TGI", "setting": "T-47D breast", "value": 19.4, "unit": "µM"},
      {"measurement": "TGI", "setting": "SF-268 CNS", "value": 20.7, "unit": "µM"},
      {"measurement": "TGI", "setting": "CAKI-1 renal", "value": 19.8, "unit": "µM"},
      {"measurement": "TGI", "setting": "OVCAR-8 ovarian", "value": 23.5, "unit": "µM"},
      {"measurement": "GI50", "setting": "DU-145 prostate", "value": 3.43, "unit": "µM"},
      {"measurement": "TGI", "setting": "DU-145 prostate", "value": 11.9, "unit": "µM"},
      {"measurement": "TGI", "setting": "UO-31 renal", "value": 19.6, "unit": "µM"},
      {"measurement": "GI50", "setting": "RXF 393 renal", "value": 0.0726, "unit": "µM"},
      {"measurement": "TGI", "setting": "RXF 393 renal", "value": 1.82, "unit": "µM"},
      {"measurement": "TGI", "setting": "DMS 114 small cell lung", "value": 22.9, "unit": "µM"},
      {"measurement": "TGI", "setting": "K-562 leukemia", "value": 14.7, "unit": "µM"},
      {"measurement": "TGI", "setting": "OVCAR-4 ovarian", "value": 13.3, "unit": "µM"},
      {"measurement": "GI50", "setting": "MDA-MB-231 breast", "value": 3.99, "unit": "µM"},
      {"measurement": "TGI", "setting": "MDA-MB-231 breast", "value": 15.2, "unit": "µM"},
      {"measurement": "GI50", "setting": "HS 578T breast", "value": 10.7, "unit": "µM"},
      {"measurement": "TGI", "setting": "HS 578T breast", "value": 31.8, "unit": "µM"},
      {"measurement": "TGI", "setting": "HOP-62 NSCLC", "value": 18.6, "unit": "µM"},
      {"measurement": "TGI", "setting": "DLD-1 colon", "value": 53.2, "unit": "µM"},
      {"measurement": "GI50", "setting": "A498 renal", "value": 2.51, "unit": "µM"},
      {"measurement": "TGI", "setting": "A498 renal", "value": 8.2, "unit": "µM"},
      {"measurement": "TGI", "setting": "MOLT-4 leukemia", "value": 12.3, "unit": "µM"},
      {"measurement": "TGI", "setting": "A549 NSCLC", "value": 11.3, "unit": "µM"},
      {"measurement": "TGI", "setting": "NCI-H460 lung", "value": 13.1, "unit": "µM"},
      {"measurement": "TGI", "setting": "M19-MEL melanoma", "value": 25.7, "unit": "µM"},
      {"measurement": "TGI", "setting": "HCT-15 colon", "value": 18, "unit": "µM"},
      {"measurement": "TGI", "setting": "U251 CNS", "value": 14.6, "unit": "µM"},
      {"measurement": "TGI", "setting": "KM12 colon", "value": 16.7, "unit": "µM"},
      {"measurement": "GI50", "setting": "PC-3 prostate", "value": 3.5, "unit": "µM"},
      {"measurement": "TGI", "setting": "PC-3 prostate", "value": 14.5, "unit": "µM"},
      {"measurement": "GI50", "setting": "NCI/ADR-RES ovarian", "value": 2.56, "unit": "µM"},
      {"measurement": "TGI", "setting": "NCI/ADR-RES ovarian", "value": 14.3, "unit": "µM"},
      {"measurement": "TGI", "setting": "SNB-19 CNS", "value": 36.1, "unit": "µM"},
      {"measurement": "TGI", "setting": "RPMI-8226 leukemia", "value": 23.4, "unit": "µM"},
      {"measurement": "TGI", "setting": "COLO 205 colon", "value": 16.5, "unit": "µM"},
      {"measurement": "TGI", "setting": "HL-60(TB) leukemia", "value": 15.7, "unit": "µM"},
      {"measurement": "GI50", "setting": "SK-OV-3 ovarian", "value": 3.17, "unit": "µM"},
      {"measurement": "TGI", "setting": "SK-OV-3 ovarian", "value": 14, "unit": "µM"},
      {"measurement": "TGI", "setting": "CCRF-CEM leukemia", "value": "> 48", "unit": "µM"}
    ]}
  ]
}
